The results in this text go back to patent publication US11697646B2, “Triazole N-linked carbamoyl cyclohexyl acids as LPA antagonists” (BRISTOL-MYERS SQUIBB COMPANY, priority 2017, dated 2023).

For the first assay, the target named is T1, human LPA1 (Homo sapiens, UniProt Q92633).
T1 construct: expressed in transfected cells; host or cells: Chinese hamster ovary (CHO) cells
T1 sequence (Q92633 whole entry): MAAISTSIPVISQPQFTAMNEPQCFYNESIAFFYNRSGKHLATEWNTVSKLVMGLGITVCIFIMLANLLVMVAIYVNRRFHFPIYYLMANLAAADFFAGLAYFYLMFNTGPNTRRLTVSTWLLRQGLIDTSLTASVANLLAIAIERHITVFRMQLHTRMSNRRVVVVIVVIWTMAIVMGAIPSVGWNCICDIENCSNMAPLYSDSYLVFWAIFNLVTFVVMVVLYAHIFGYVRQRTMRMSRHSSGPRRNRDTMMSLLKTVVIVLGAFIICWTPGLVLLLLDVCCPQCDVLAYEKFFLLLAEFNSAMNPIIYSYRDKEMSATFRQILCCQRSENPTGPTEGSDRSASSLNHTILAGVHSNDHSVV
Put plainly: LPA1 functional antagonist assay (calcium flux). The settings on record: CHO cells overexpressing human LPA1; calcium flux induced by 10 nM LPA; read-out: hLPA1 IC50. The class given is cell-based. As to the method: The effectiveness of compounds of the present invention as LPA1 inhibitors can be determined in an LPA1 functional antagonist assay as follows:
The cells were then equilibrated to room temperature for 30 minutes before the assay. […] IC50 values were determined by fitting data to a 4-parameter logistic equation (GraphPad Prism, San Diego Calif.).
For `Cc1nc(-c2nnn(C)c2NC(=O)OC(C)C2CC2)ccc1O[C@H]1CCC[C@H](C(=O)O)C1` (mixture of isomers) [Example 69, (1S,3S)-3-((6-(5-(((1-cyclopropyl-ethoxy)carbonyl)amino)-1-methyl-1H-1,2,3-triazol-4-yl)-2-methyl-pyridin-3-yl)oxy)cyclohexane-1-carboxylic acid], the IC50 stood at 85 nM.
Turning to `Cc1nc(-c2nnn(C)c2CNC(=O)N(C)CCC(C)C)ccc1O[C@H]1CCC[C@H](C(=O)O)C1` [Example 116, (1S,3S)-3-((6-(5-((3-isopentyl-3-methyl-ureido)methyl)-1-methyl-1H-1,2,3-triazol-4-yl)-2-methylpyridin-3-yl)oxy)cyclohexane-1-carboxylic acid], the concentration for half-maximal inhibition (IC50) worked out at 92 nM.
For `Cc1nc(-c2nnn(C)c2CNC(=O)OCC2(C)CC2)c(F)cc1O[C@H]1CCC[C@H](C(=O)O)C1` [Example 215, (1S,3S)-3-((5-fluoro-2-methyl-6-(1-methyl-5-(((((1-methylcyclopropyl)methoxy)carbonyl)amino)methyl)-1H-1,2,3-triazol-4-yl)pyridin-3-yl)oxy)cyclohexane-1-carboxylic acid], the IC50 came to 112 nM.
With `CCCCN(C)C(=O)NCc1c(-c2ccc(O[C@H]3CCC[C@H](C(=O)O)C3)c(CC)n2)nnn1C` [Example 150, (1S,3S)-3-((6-(5-((3-butyl-3-methylureido)methyl)-1-methyl-1H-1,2,3-triazol-4-yl)-2-ethyl-pyridin-3-yl)oxy)cyclohexane-1-carboxylic acid], the concentration for half-maximal inhibition (IC50) is 44 nM.
Turning to `CCc1nc(-c2nnn(C)c2NC(=O)OCC2CC2)ccc1O[C@H]1CCC[C@H](C(=O)O)C1` [Example 231, (1S,3S)-3-{[6-(5-{[(cyclopropyl-methoxy)carbonyl}amino}-1-methyl-1H-1,2,3-triazol-4-yl)-2-ethylpyridin-3-yl]oxy}cyclohexane-1-carboxylic acid], the IC50 came out at 28 nM.
`CC(C)COC(=O)Nc1c(-c2ccc(O[C@H]3CCC[C@H](C(=O)O)C3)cn2)nnn1C` [Example 87, (1S,3S)-3-((6-(5-((isobutoxy-carbonyl)amino)-1-methyl-1H-1,2,3-triazol-4-yl)pyridin-3-yl)oxy)cyclohexane-1-carboxylic acid]: the IC50 worked out at 219 nM.
With `Cn1nnc(-c2ccc(O[C@@H]3CCC[C@@H](C(=O)O)C3)cc2)c1CNC(=O)OCc1ccccc1` (racemic) [Example 40, (±)-trans-3-(4-(5-((((benzyloxy)carbonyl)amino)methyl)-1-methyl-1H-1,2,3-triazol-4-yl)phenoxy)cyclohexane-1-carboxylic acid], the IC50 came out at 664 nM.
`Cc1nc(-c2nnn(C)c2CNC(=O)OC2CCCC2)ccc1O[C@H]1CCC[C@H](C(=O)O)C1` [Example 28]: the IC50 is 18 nM.
For the compound `Cc1nc(-c2nnn(C)c2NC(=O)OCCC(F)(F)F)ccc1O[C@H]1CCC[C@H](C(=O)O)C1` [Example 145, (1S,3S)-3-((2-methyl-6-(1-methyl-5-(((3,3,3-trifluoropropoxy)carbonyl)amino)-1H-1,2,3-triazol-4-yl)pyridin-3-yl)oxy)cyclohexane-1-carboxylic acid], the IC50 is 43 nM.
As to `Cn1nnc(-c2ccc(O[C@H]3CCC[C@H](C(=O)O)C3)c(C(F)F)n2)c1CNC(=O)OCc1ccccc1` [Example 98, (1S,3S)-3-((6-(5-((((benzyloxy)carbonyl)amino)methyl)-1-methyl-1H-1,2,3-triazol-4-yl)-2-(difluoro-methyl)pyridin-3-yl)oxy)cyclohexane-1-carboxylic acid], the IC50 amounted to 33 nM.
On the same count and under the same terms, as for `COCCOC(=O)NCc1c(-c2ccc(O[C@H]3CCC[C@H](C(=O)O)C3)c(C)n2)nnn1C` [Example 21, (1S,3S)-3-((6-(5-((((2-methoxyethoxy)carbonyl)amino)methyl)-1-methyl-1H-1,2,3-triazol-4-yl)-2-methylpyridin-3-yl)oxy)cyclohexane-1-carboxylic acid], the figure is 1620 nM.
`Cc1nc(-c2nnn(C)c2CNC(=O)N(C)CCC2CC2)ccc1O[C@H]1CCC[C@H](C(=O)O)C1` [Example 114, (1S,3S)-3-((6-(5-((3-(2-cyclopropyl-ethyl)-3-methylureido)methyl)-1-methyl-1H-1,2,3-triazol-4-yl)-2-methylpyridin-3-yl)oxy)cyclohexane-1-carboxylic acid]: the IC50 worked out at 112 nM.
As to `Cc1nc(-c2nnn(C)c2CNC(=O)NC(C)c2ccccc2)ccc1O[C@H]1CCC[C@H](C(=O)O)C1` (mixture of isomers) [Example 129, (1S,3S)-3-((2-methyl-6-(1-methyl-5-((3-(1-phenylethyl)ureido)methyl)-1H-1,2,3-triazol-4-yl)pyridin-3-yl)oxy)cyclo-hexane-1-carboxylic acid], the IC50 amounted to 142 nM.
On to `Cn1nnc(-c2ccc(O[C@H]3CCC[C@H](C(=O)O)C3)cn2)c1CNC(=O)OCCc1ccccc1` [Example 9, (1S,3S)-3-((6-(1-methyl-5-(((phenethoxycarbonyl)amino)methyl)-1H-1,2,3-triazol-4-yl)pyridin-3-yl)oxy)cyclohexane-1-carboxylic acid], for which the half-maximal inhibitory concentration (IC50) turned out to be 672 nM.
For `Cc1nc(-c2nnn(C)c2NC(=O)OCC2CC2)ccc1O[C@H]1CCC[C@H](C(=O)O)C1` [Example 74, (1S,3S)-3-((6-(5-(((cyclopropyl-methoxy)carbonyl)amino)-1-methyl-1H-1,2,3-triazol-4-yl)-2-methyl-pyridin-3-yl)oxy)cyclohexane-1-carboxylic acid], the IC50 was found to be 14 nM.
As to `Cc1nc(-c2nnn(C)c2CNC(=O)CC2CCCC2)ccc1O[C@H]1CCC[C@H](C(=O)O)C1` [Example 235, (1S,3S)-3-((6-(5-((2-cyclopentylacetamido)methyl)-1-methyl-1H-1,2,3-triazol-4-yl)-2-methylpyridin-3-yl)oxy)cyclohexanecarboxylic acid], the IC50 is 105 nM.
In the case of `CCCOC(=O)NCc1c(-c2ccc(O[C@H]3CCC[C@H](C(=O)O)C3)c(CC)n2)nnn1C` [Example 42, (1S,3S)-3-((2-ethyl-6-(1-methyl-5-(((propoxycarbonyl)amino)methyl)-1H-1,2,3-triazol-4-yl)pyridin-3-yl)oxy)cyclohexane-1-carboxylic acid], the IC50 was determined as 788 nM.
With `CCCOC(=O)Nc1c(-c2ccc(O[C@H]3CCC[C@H](C(=O)O)C3)c(C)n2)nnn1C` [Example 68, (1S,3S)-3-((2-methyl-6-(1-methyl-5-((propoxycarbonyl)amino)-1H-1,2,3-triazol-4-yl)pyridin-3-yl)oxy)cyclohexane-1-carboxylic acid], the IC50 was 89 nM.
`CC[C@H](C)COC(=O)NCc1c(-c2ccc(O[C@H]3CCC[C@H](C(=O)O)C3)c(C)n2)nnn1C` [Example 1, (1S,3S)-3-((2-Methyl-6-(1-methyl-5-(((((S)-2-methylbutoxy)carbonyl)amino)methyl)-1H-1,2,3-triazol-4-yl)pyridin-3-yl)oxy)cyclohexanecarboxylic acid]: the IC50 was determined as 18 nM.
Regarding `Cn1nnc(-c2ccc(O[C@H]3CCC[C@H](C(=O)O)C3)cn2)c1NC(=O)OCC1CCC1` [Example 81], the IC50 was determined as 56 nM.

The same assay, now with this note: human LPA1 functional antagonist assay; read-out: hLPA1 IC50.
With `Cc1nc(-c2nnn(C)c2CNC(=O)OCCC2CC2)ccc1O[C@H]1CCC[C@H](C(=O)O)C1` [Example 157, (1S,3S)-3-((6-(5-((((2-cyclopropyl-ethoxy)carbonyl)amino)methyl)-1-methyl-1H-1,2,3-triazol-4-yl)-2-methylpyridin-3-yl)oxy)cyclo-hexane-1-carboxylic acid], the IC50 worked out at 19 nM.
`CC[C@H](C)COC(=O)NCc1c(-c2cnc(O[C@H]3CCC[C@H](C(=O)O)C3)c(C)n2)nnn1C` [Example 161, (1S,3S)-3-((3-methyl-5-(1-methyl-5-(((((S)-2-methylbutoxy)carbonyl)amino)methyl)-1H-1,2,3-triazol-4-yl)pyrazin-2-yl)oxy)cyclohexane-1-carboxylic acid]: the IC50 came to 109 nM.
With `Cc1nc(-c2nnn(C)c2CNC(=O)OCc2cccc(F)c2)cnc1O[C@H]1CCC[C@H](C(=O)O)C1` [Example 159, (1S,3S)-3-((5-(5-(((((3-fluorobenzyl)oxy)carbonyl)amino)methyl)-1-methyl-1H-1,2,3-triazol-4-yl)-3-methylpyrazin-2-yl)oxy)cyclo-hexane-1-carboxylic acid], the IC50 amounted to 122 nM.
Consider `Cc1nc(-c2nnn(C)c2CNC(=O)OCC(C)CC(F)(F)F)cnc1O[C@H]1CCC[C@H](C(=O)O)C1` (stereo partly drawn) [Example 155, (1S,3S)-3-((3-methyl-5-(1-methyl-5-((((4,4,4-trifluoro-2-methylbutoxy)carbonyl)amino)methyl)-1H-1,2,3-triazol-4-yl)pyrazin-2-yl)oxy)cyclohexane-1-carboxylic acid], for which the IC50 was 85 nM.
For `Cc1nc(-c2nnn(C)c2CNC(=O)OCC2CCC2)cnc1O[C@H]1CCC[C@H](C(=O)O)C1` [Example 156, (1S,3S)-3-((5-(5-((((cyclobutyl-methoxy)carbonyl)amino)methyl)-1-methyl-1H-1,2,3-triazol-4-yl)-3-methylpyrazin-2-yl)oxy)cyclohexane-1-carboxylic acid], the IC50 is 213 nM.
Same read-out and setting: as for `CC(=O)CCCOC(=O)NCc1c(-c2ccc(O[C@H]3CCC[C@H](C(=O)O)C3)c(C)n2)nnn1C` [Example 199, (1S,3S)-3((2-methyl-6-(1-methyl-5-(((((4-oxopentyl)oxy)carbonyl)amino)methyl)-1H-1,2,3-triazol-4-yl)pyridin-3-yl)oxy)cyclohexane-1-carboxylic acid], the figure is 312 nM.
On to `Cc1nc(-c2nnn(C)c2CNC(=O)OCC(C)C(F)(F)F)ccc1O[C@H]1CCC[C@H](C(=O)O)C1` (mixture of isomers) [Example 204, (1S,3S)-3((2-methyl-6-(1-methyl-5-((((3,3,3-trifluoro-2-methylpropoxy)carbonyl)amino)methyl)-1H-1,2,3-triazol-4-yl)pyridin-3-yl)oxy)cyclohexane-1-carboxylic acid], for which the half-maximal inhibitory concentration (IC50) is 96 nM.
